Source: patent publication US20060046966A1, “Antipicornaviral compounds and compositions, their pharmaceutical uses, and materials for their synthesis” (Agouron Pharmaceuticals, Inc., priority 1998, published 2006)
Where two headings read alike, the source gives them in different places.

Key:
[1] = molecular target: T1, rhinovirus 3C protease from HRV serotype-14 (Human rhinovirus 14, UniProt P03303); assay: Inhibition of rhinovirus 3C protease (FRET assay), serotype 14; type: biochemical; settings: read-out: Protease Inhibition kobs/[I], HRV serotype-14 3C protease; progress curves in enzyme start experiments
T1 construct: Recombinant rhinovirus 3C proteases; made in house
Summary of the method: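 Recombinant 3C protease (50-100 nM) with ~1 μM DABCYL-GRAVFQGPVG-EDANS FRET substrate in 50 mM Tris pH 7.6, 1 mM EDTA, 2% DMSO. Cleavage read as increase in EDANS fluorescence. kobs/[I] derived from progress curves of enzyme-initiated reactions.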

[2] = system: HRV-14; assay: Antirhinoviral H1-HeLa cell culture assay, HRV-14; type: cell-based, human rhinovirus; settings: Rhinovirus B, HRV14, H1-HeLa, HRV serotype-14, H1-HeLa cells
Summary of the method: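 Antiviral EC50 comes from formazan production by infected, compound-treated H1-HeLa cells reaching 50% of the mock-infected, untreated level. Cells grown in MEM/10% FBS were infected at m.o.i. 0.13 and incubated with compound for two days before XTT/PMS addition.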

[3] = system: HRV (25); assay: Antirhinoviral H1-HeLa cell culture assay, HRV serotype 25; type: cell-based; settings: Human rhinovirus sp., H1-HeLa cells, XTT
Experimental: In this cell protection assay, the ability of compounds to protect cells against HRV infection was measured by the XTT dye reduction method, which is described in Weislow et al., J. Natl. Cancer Inst. 1989, vol. 81, 577-586.
H1-HeLa cells were infected with HRV-14 at a multiplicity of infection (m.o.i.) of 0.13 (virus particles/cell) or mock-infected with medium only. Infected or mock-infected cells were resuspended at 8×10^5 cells per mL, and incubated with appropriate concentrations of the compounds to be tested. Two days later, XTT/PMS was added to test plates and the amount of formazan produced was quantified spectrophotometrically at 450/650 nm. The EC50 value was calculated as the concentration of compound that increased the percentage of formazan production in compound-treated, virus-infected cells to 50% of that produced by compound-free, mock-infected cells. The 50% cytotoxic dose (CC50) was calculated as the concentration of compound that decreased the percentage of formazan produced in compound-treated, mock-infected cells to 50% of that produced by compound-free, mock-infected cells. The therapeutic index (TI) was calculated by dividing the CC50 value by the EC50 value. […]

T1 sequence (P03303 1538-1719): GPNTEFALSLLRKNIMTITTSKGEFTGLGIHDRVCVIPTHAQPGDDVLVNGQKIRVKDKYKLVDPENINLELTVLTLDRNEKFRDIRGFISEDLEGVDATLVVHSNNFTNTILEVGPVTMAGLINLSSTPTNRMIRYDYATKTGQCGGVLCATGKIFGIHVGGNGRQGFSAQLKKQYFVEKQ

CCOC(=O)/C=C/[C@H](C[C@@H]1CCNC1=O)NC(=O)[C@@H](CC(=O)[C@@H](NC(=O)c1cc(C)on1)C(C)C)Cc1ccc(F)cc1 [Compound B-2, Ethyl-3-{(5′-Methylisoxazole-3′-carbonyl)-L-ValΨ(COCH2)-L-(4-F-Phe)-L-((S)-Pyrrol-Ala)}-E-Propenoate]
kinact/KI [1]: 1.09e+06 M⁻¹ s⁻¹
EC50 ([2]; Table 1, XTT dye reduction, read-out: Cell Protection EC50): 5 nM
EC50 ([2]; Table 3, XTT, read-out: EC50): 5 nM
EC50 [3]: 30 nM
